Laboratory results from patent publication US20040265847A1, “Method for treating Alzheimer's disease” (priority 1991, published 2004).

Key:
[1] = test system: PC12 cells; experiment: Effect of extracellular APP on zinc uptake by PC12 cells; format: cell-based; details: 10 nM APP, within an hour (=4% in the absence of APP)
Procedure: 10^6 PC12 cells were plated for 24 hr in the presence of Dulbecco's modified Eagle's medium (DMEM, N2) supplemented with 8% fetal calf serum (FCS). The medium was then removed and replaced with DMEM with no FCS and incubated for a further 24 hr. The cells were then washed (×2 with DMEM) and incubated with DMEM supplemented with 10 nM 130/110 kDa purified brain membrane-associated APP carrying 20 000 CPM ^65Zn prepared as in FIG. 1 above. Following varying periods of incubation, the cells were harvested, washed, exposed to Pronase digestion to remove surface proteins and then lysed in scintillant and assayed in a beta-counter.

[2] = test system: APP-degrading protease; experiment: Assay of APP-degrading protease (Zn^2+-enhanced degradation of plasma 130 kDa APP); format: biochemical, human; details: plasma APP from heparin-Sepharose eluates, 37° C.
[3] = biological target: T1, APP purified from rat brain (Rattus norvegicus, UniProt P08592); experiment: heparin binding to APP in a Biosensor system; details: summary statement, 'may increase'
T1 construct: from tissue; host or cells: rat brain
Procedure: The effect of Zn^2+ in modulating heparin binding to APP was also studied in a Biosensor system. […] This effect was most pronounced and most specific for Zn^2+, as opposed to the absence of divalent cations or the presence of Ca^2+, Mg^2+ or Co^2+, and was most evident when the heparin:APP ratio was low. […] Zn^2+ at 50 nM promoted a =170% increase in heparin binding, the effect saturating at 70 μM.

[4] = test system: plasma APP; experiment: Effect of zinc loading upon human plasma APP; format: in vivo
Procedure: (§1) 100 mg elemental zinc (as sulphate, in capsules) was given orally to two individuals with Alzheimer's disease (NINCDS/ADRDC criteria with abnormal plasma APP profiles) and two age-matched controls (with normal plasma APP profiles). Zinc was continued for 7 days and morning fasting bloods collected before the commencement of zinc supplements and three weeks after ceasing the supplement. Western blots with monoclonal antibody 22C11 were carried out on 65 μg of plasma heparin-Sepharose eluate purified from the samples in the manner previously described. The results indicated an increase of 130 kDa species plasma APP relative to the other species present, in other words a shift towards the profile of APP species that is characteristic of Alzheimer's disease. The two control plasma APP profiles came to resemble Alzheimer's disease profiles, and the two Alzheimer's profiles worsened. The proportional increase in the 130 kDa species was approximately 20% per day of zinc supplementation.

[5] = Administration of zinc in Alzheimer's disease: neurological response; format: in vivo, human
Procedure: as §1
The subjects from Example 3 were studied.
The two AD volunteers because acutely unwell while on zinc supplementation. […] Eye movement abnormalities and general levels of self care worsened over the period of supplementation. This response was consistent with a neurotoxic response to the zinc supplementation.

[6] = test system: human brain membrane-derived APP; experiment: trypsin digestion of human brain membrane-derived APP, Western blot with 22C11; format: biochemical; details: summary statement
Excerpt: The proteolytic activity of trypsin (Boehringer, Mannheim) was studied to determine whether it was modulated by a range of doses of heparin (Sigma) and ZnCl2. […] Western blots for APP using the APP binding monoclonal antibody 22C11 were used to monitor the progression of the proteolytic reaction and to detect breakdown products.

T1 sequence (P08592 18-770): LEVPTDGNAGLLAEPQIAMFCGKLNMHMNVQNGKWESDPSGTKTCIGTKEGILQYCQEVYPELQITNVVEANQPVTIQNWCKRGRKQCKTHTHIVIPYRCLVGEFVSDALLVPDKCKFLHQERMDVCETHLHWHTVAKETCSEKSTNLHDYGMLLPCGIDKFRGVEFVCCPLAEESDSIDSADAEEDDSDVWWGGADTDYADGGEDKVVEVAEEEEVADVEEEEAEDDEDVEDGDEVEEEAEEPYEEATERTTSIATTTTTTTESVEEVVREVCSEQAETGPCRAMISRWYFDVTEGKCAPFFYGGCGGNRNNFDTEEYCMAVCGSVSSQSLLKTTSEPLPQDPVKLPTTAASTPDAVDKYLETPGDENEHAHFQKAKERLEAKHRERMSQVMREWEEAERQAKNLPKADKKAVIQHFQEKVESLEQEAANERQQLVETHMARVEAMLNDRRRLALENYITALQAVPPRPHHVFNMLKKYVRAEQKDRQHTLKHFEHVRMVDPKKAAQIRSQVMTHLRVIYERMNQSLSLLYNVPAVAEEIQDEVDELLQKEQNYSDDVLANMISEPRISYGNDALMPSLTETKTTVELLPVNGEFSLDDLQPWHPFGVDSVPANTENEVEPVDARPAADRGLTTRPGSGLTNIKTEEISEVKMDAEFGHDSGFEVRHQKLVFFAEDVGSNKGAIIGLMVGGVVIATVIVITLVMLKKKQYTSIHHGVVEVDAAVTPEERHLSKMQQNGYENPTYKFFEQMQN

increase of APP affinity for heparin [3] | return of cognitive function to previous levels after ceasing supplementation ([5]; AD volunteers) | eye movement abnormalities and general levels of self care ([5]; AD volunteers, over the period of supplementation) | ill effects in healthy volunteers ([5]; healthy volunteers on zinc supplementation) | Compound | ^65Zn counts internalized [1] | zinc concentration required to stimulate proteolysis [2] | proportional increase in the 130 kDa species of plasma APP ([4]; 100 mg elemental zinc orally for 7 days, AD and age-matched controls) | persistence of changes in plasma APP profile ([4]; elderly control, four-fold higher dose over three days) | mini-mental state examination scores ([5]; Alzheimer's disease volunteers on oral zinc supplementation) | zinc concentration at which the protective effects of heparin are abolished [6]
 |  |  |  | APP: 130/110 kDa purified brain membrane-associated amyloid precursor protein carrying ^65Zn | 10% |  |  |  |  | 
5 to 10 fold | within two weeks | worsened | no ill effects | [Zn] [zinc] |  | 20 μm | approximately 20 % per day | persisted for three days after ceasing supplementation | deteriorating from moderately demented levels to unrecordable | above 1 μm
